Columns and labels:
gastric acid secretion = experiment: Gastric antisecretory activity in the gastric fistula rat; assay type: in vivo, Long Evans rats; details: sc, relative to cimetidine
histamine H2-receptors = biological target: T1, histamine H2-receptors (Cavia porcellus, UniProt P47747); experiment: Histamine H2-receptor antagonism, isolated guinea pig right atria assay; assay type: cell-based, Hartley strain guinea pigs; details: for Kb: Schild plot, 30-minute incubation, 95% confidence limits in parentheses, read-out: KB (dissociation constant); for Potency Ratio (cimetidine = 1.0): relative to cimetidine
T1 construct: The spontaneously beating right atrium was dissected free from other tissues; from tissue; host or cells: isolated right atrium of male Hartley strain guinea pigs
Procedure: Subsequent investigations by Hughes and Coret, Proc. Soc. […] Black et al., Agents and Actions, 3, 133 (1973) and Brimblecombe et al., Fed. […] The present comparative studies were carried out using a modification of the procedure reported by Reinhardt et al., Agents and Actions, 4, 217 (1974).
The spontaneously beating right atrium was dissected free from other tissues and a silk thread (4-0) attached to each end. […] Atrial contractions were recorded isometrically by means of a Grass FT 0.03 force displacement transducer and recordings of contractile force and rate were made with a Beckman RP Dynograph.

peptic ulcer disease = details: clinical evaluation, Gray et al., Lancet, 1, 8001 (1977); cited from earlier work

T1 sequence (P47747 whole entry): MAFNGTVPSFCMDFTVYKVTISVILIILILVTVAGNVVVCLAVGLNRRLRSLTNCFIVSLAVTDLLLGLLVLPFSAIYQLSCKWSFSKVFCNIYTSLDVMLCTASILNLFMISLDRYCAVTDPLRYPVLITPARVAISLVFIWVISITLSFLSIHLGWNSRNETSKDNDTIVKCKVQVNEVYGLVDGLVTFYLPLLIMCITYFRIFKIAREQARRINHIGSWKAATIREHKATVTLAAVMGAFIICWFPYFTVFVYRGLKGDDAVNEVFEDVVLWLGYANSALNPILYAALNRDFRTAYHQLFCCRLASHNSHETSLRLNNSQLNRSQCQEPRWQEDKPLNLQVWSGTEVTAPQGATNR

Row | SMILES | Potency Ratio (cimetidine = 1.0) (gastric acid secretion) | Kb (histamine H2-receptors) [nM] | Potency Ratio (cimetidine = 1.0) (histamine H2-receptors) | effect in treatment of peptic ulcer disease (peptic ulcer disease)
1 | Nc1nsnc1NCCCOc1cccc(CN2CCCCC2)c1 [Example 1, 3-Amino-4-[3-(3-piperidinomethylphenoxy)propylamino]-1,2,5-thiadiazole] | 37 | 3 | 137 | –
2 | CN(C)Cc1ccc(CSCCNc2nsnc2N)o1 [Example 2, 3-Amino-4-{2-[(5-dimethylaminomethyl-2-furyl)methylthio]ethylamino}-1,2,5-thiadiazole] | 4.5 | – | – | –
3 | Cc1cc(CSCCNc2nsnc2N)sc1CN(C)C [Example 3, 3-Amino-4-{2-[(5-dimethylaminomethyl-4-methyl-2-thienyl)methylthio]ethylamino}-1,2,5-thiadiazole] | ~ 7 | – | – | –
4 | Nc1nsnc1NCCCOc1cccc(CN2CCCC2)c1 [Example 4, 3-Amino-4-[3-(3-pyrrolidinomethylphenoxy)propylamino]-1,2,5-thiadiazole] | 20 | 4 | 102 | –
5 | CN/C(=N/CCSCc1nc[nH]c1C)NC#N [cimetidine] | – | – | – | effective therapeutic agent in the treatment of peptic ulcer disease

— patent US4528377A, “Substituted 3,4-diamino-1,2,5-thiadiazoles having histamine H2 -receptor antagonist activity” (Bristol-Myers Company, priority 1983, dated 1985)
